According to patent publication US6683211B1, “Phenyl-propargylether derivatives” (priority 2000, dated 2004):

Columns and labels:
Assay type in all cases: in vivo
Phytophthora [1] = test: D-2b) systemic action against Phytophthora on tomato plants; conditions: Phytophthora, 96 h; 200 ppm; test D-2b) systemic (soil watering), evaluated after 4 days, read-out: inhibit fungal infestations
Description: (§1) D-2: Action Against Phytophthora on Tomato Plants
After a cultivation period of 3 weeks, tomato plants are watered with a spray mixture (0.02% active ingredient based on the volume of the soil) prepared from a wettable powder formulation of the test compound. […] After 96 hours, the treated plants are infected with a sporangia suspension of the fungus. Fungus infestation is evaluated after incubation of the infected plants for 4 days at 90-100% relative humidity and +20° C. […] Compounds E1.003, E1.004, E1.009, E1.011, E1.012, E1.014, E1.018, E1.019, E1.020, E1.021, E1.022, E1.023, E1.025, E1.031, E1.032, E1.033, E1.038, E1.040, E1.044, E1.045, E1.049, E1.050, E1.053, E1.055, E1.057, E1.064, E1.085, E1.089, E1.090, E1.091, E1.102, E1.08, E1.110, E1.112, E1.121, E1.125, E1.129, E1.139 and E1.141 at 200 ppm inhibit fungal infestations in both tests D-2a) and D-2b) by 80-100%.

Phytophthora [2] = test: D-2a) residual-protective action against Phytophthora on tomato plants; conditions: Phytophthora, 120 h; 200 ppm; test D-2a) residual-protective, evaluated after 5 days, read-out: inhibit fungal infestations
Description: as §1
(§2) a) Residual-protective Action
After a cultivation period of 3 weeks, tomato plants are sprayed with a spray mixture (0.02% active ingredient) prepared from a wettable powder formulation of the test compound. After 48 hours, the treated plants are infected with a sporangia suspension of the fungus. Fungus infestation is evaluated after incubation of the infected plants for 5 days at 90-100% relative humidity and +20° C.

Plasmopara viticola [3] = test: D-1b) residual-curative action against Plasmopara viticola on vines; conditions: Plasmopara viticola, 144 h; 200 ppm; test D-1b) residual-curative; vine seedlings; evaluated 6 days after infection; read-out: inhibit fungal infestations
Description: (§3) D-1: Action Against Plasmopara viticola on Vines
b) Residual-curative Action
Vine seedlings are infected at the 4- to 5-leaf stage with a sporangia suspension of the fungus. After incubation for 24 hours in a humidity chamber at 95-100% relative humidity and +20° C., the infected plants are dried and sprayed with a spray mixture (0.02% active ingredient) prepared from a wettable powder formulation of the test compound. After the spray coating has dried, the treated plants are placed in the humidity chamber again.
Fungus infestation is evaluated 6 days after infection.

Plasmopara viticola [4] = test: D-1a) residual-protective action against Plasmopara viticola on vines; conditions: Plasmopara viticola, 144 h; 200 ppm; test D-1a) residual-protective; vine seedlings; evaluated after 6 days; read-out: inhibit fungal infestations
Description: as §3, §2
Vine seedlings are sprayed at the 4- to 5-leaf stage with a spray mixture (0.02% active ingredient) prepared from a wettable powder formulation of the test compound. After 24 hours, the treated plants are infected with a sporangia suspension of the fungus. Fungus infestation is evaluated after incubation for 6 days at 95-100% relative humidity and +20° C.

Phytophthora [5] = test: D-3a) residual-protective action against Phytophthora on potato plants; conditions: Phytophthora, 96 h; 200 ppm; test D-3a) residual-protective; potato plants (Bintje); evaluated after 4 days; read-out: inhibit fungal infestations
Description: (§4) D-3: Action Against Phytophthora on Potato Plants
as §2
2-3 week old potato plants (Bintje variety) are sprayed with a spray mixture (0.02% active ingredient) prepared from a wettable powder formulation of the test compound. After 48 hours, the treated plants are infected with a sporangia suspension of the fungus. Fungus infestation is evaluated after incubation of the infected plants for 4 days at 90-100% relative humidity and +20° C.

Phytophthora [6] = test: D-3b) systemic action against Phytophthora on potato plants; conditions: Phytophthora, 96 h; 200 ppm; test D-3b) systemic (soil watering); potato plants (Bintje); evaluated after 4 days; read-out: inhibit fungal infestations
Description: as §4
2-3 week old potato plants (Bintje variety) are watered with a spray mixture (0.02% active ingredient based on the volume of the soil) prepared from a wettable powder formulation of the test compound. […] After 48 hours, the treated plants are infected with a sporangia suspension of the fungus. Fungus infestation is evaluated after incubation of the infected plants for 4 days at 90-100% relative humidity and +20° C. Fungal infestation is effectively controlled with compounds of Tables 1 to 35. Compounds E1.003, E1.004, E1.009, E1.011, E1.012, E1.019, E1.020, E1.021, E1.022, E1.025, E1.031, E1.032, E1.033, E1.038, E1.045, E1.049, E1.050, E1.053, E1.085, E1.089, E1.090, E1.091, E1.102, E1.110, E1.112, E1.121, E1.125, E1.129 at 200 ppm inhibit fungal infestations in both tests D-3a) and D-3b) by 80-100%.

Measured: inhibition at 200 ppm

C#CCOc1ccc(CCNC(=O)C(OCC#CC)c2ccc(Cl)cc2)cc1OC (stereo not drawn) [Compound E1.014, 2-but-2-ynyloxy-2-(4-chloro-phenyl)-N-[2-(3-methoxy-4-prop-2-ynyloxy-phenyl)-ethyl]-acetamide]
80 to 100%: Phytophthora [1] | Phytophthora [2] | Plasmopara viticola [3] | Plasmopara viticola [4]

C#CCOc1ccc(CCNC(=O)C(OCC=C)c2ccc(Br)cc2)cc1OC (stereo not drawn) [Compound E1.021, 2-allyloxy-2-(4-bromo-phenyl)-N-[2-(3-methoxy-4-prop-2-ynyloxy-phenyl)-ethyl]-acetamide]
80 to 100%: all assays above

C#CCOc1ccc(CCNC(=O)C(OCC)c2ccc(Cl)cc2)cc1OC (stereo not drawn) [Compound E1.004, 2-(4-chloro-phenyl)-2-ethoxy-N-[2-(3-methoxy-4-prop-2-ynyloxy-phenyl)-ethyl]-acetamide]
80 to 100%: all assays above

C#CCOc1ccc(CCNC(=O)C(OCC)c2ccc(Br)cc2)cc1OC (stereo not drawn) [Compound E1.020, 2-(4-bromo-phenyl)-2-ethoxy-N-[2-(3-methoxy-4-prop-2-ynyloxy-phenyl)-ethyl]-acetamide]
80 to 100%: all assays above

C#CCOc1ccc(CCNC(=O)C(OCC#C)c2ccc(C(F)(F)F)cc2)cc1OC (stereo not drawn) [Compound E1.050, N-[2-(3-methoxy-4-prop-2-ynyloxy-phenyl)-ethyl]-2-prop-2-ynyloxy-2-(4-trifluoromethyl-phenyl)-acetamide]
80 to 100%: all assays above

C#CCOC(C(=O)NCCc1ccc(OCC#CCC)c(OC)c1)c1ccc(Cl)cc1 (stereo not drawn) [Compound E1.012, 2-(4-chloro-phenyl)-N-[2-(3-methoxy-4-pent-2-ynyloxy-phenyl)-ethyl]-2-prop-2-ynyloxy-acetamide]
80 to 100%: all assays above

C#CCOc1ccc(CCNC(=O)C(OCC#C)c2ccc(F)c(F)c2)cc1OC (stereo not drawn) [Compound E1.085, 2-(3,4-difluoro-phenyl)-N-[2-(3-methoxy-4-prop-2-ynyloxy-phenyl)-ethyl]-2-prop-2-ynyloxy-acetamide]
80 to 100%: all assays above

C#CCOc1ccc(CCNC(=O)C(OCC=C)c2ccc(Cl)cc2)cc1OC (stereo not drawn) [Compound E1.009, 2-allyloxy-2-(4-chloro-phenyl)-N-[2-(3-methoxy-4-prop-2-ynyloxy-phenyl)-ethyl]-acetamide]
80 to 100%: all assays above

C#CCOc1ccc(CCNC(=O)C(OCOCC)c2ccc(Cl)cc2)cc1OC (stereo not drawn) [Compound E1.018, 2-(4-chloro-phenyl)-2-ethoxymethoxy-N-[2-(3-methoxy-4-prop-2-ynyloxy-phenyl)-ethyl]-acetamide]
80 to 100%: Phytophthora [1] | Phytophthora [2] | Plasmopara viticola [3] | Plasmopara viticola [4]

C#CCOc1ccc(CCNC(=O)C(OCC#C)c2ccc(F)c(Cl)c2)cc1OC (stereo not drawn) [Compound E1.090, 2-(3-chloro-4-fluoro-phenyl)-N-[2-(3-methoxy-4-prop-2-ynyloxy-phenyl)-ethyl]-2-prop-2-ynyloxy-acetamide]
80 to 100%: all assays above

C#CCOc1ccc(CCNC(=O)C(OCC#C)c2ccc(Cl)cc2)cc1OC (stereo not drawn) [Compound E1.011, 2-(4-chloro-phenyl)-N-[2-(3-methoxy-4-prop-2-ynyloxy-phenyl)-ethyl]-2-prop-2-ynyloxy-acetamide]
80 to 100%: all assays above

C#CCOc1ccc(CCNC(=O)C(OC)c2ccc(Cl)cc2)cc1OC (stereo not drawn) [Compound E1.003, 2-(4-Chloro-phenyl)-2-methoxy-N-[2-(3-methoxy-4-prop-2-ynyloxy-phenyl)-ethyl]-acetamide]
80 to 100%: all assays above

C#CCOC(C(=O)NCCc1ccc(OCC#CCC)c(OC)c1)c1ccc(Br)cc1 (stereo not drawn) [Compound E1.023, 2-(4-bromo-phenyl)-N-[2-(3-methoxy-4-pent-2-ynyloxy-phenyl)-ethyl]2-prop-2-ynyloxy-acetamide]
80 to 100%: Phytophthora [1] | Phytophthora [2] | Plasmopara viticola [3] | Plasmopara viticola [4]

C#CCOc1ccc(CCNC(=O)C(OC)c2ccc(Br)cc2)cc1OC (stereo not drawn) [Compound E1.019, 2-(4-bromo-phenyl)-2-methoxy-N-[2-(3-methoxy-4-prop-2-ynyloxy-phenyl)-ethyl]-acetamide]
80 to 100%: all assays above

C#CCOc1ccc(CCNC(=O)C(OCC#C)c2ccc(Cl)c(Cl)c2)cc1OC (stereo not drawn) [Compound E1.102, 2-(3,4-dichloro-phenyl)-N-[2-(3-methoxy-4-prop-2-ynyloxy-phenyl)-ethyl]-2-prop-2-ynyloxy-acetamide]
80 to 100%: all assays above

C#CCOc1ccc(CCNC(=O)C(OCC#C)c2ccc(Cl)c(F)c2)cc1OC (stereo not drawn) [Compound E1.091, 2-(3-fluoro-4-chloro-phenyl)-N-[2-(3-methoxy-4-prop-2-ynyloxy-phenyl)-ethyl]-2-prop-2-ynyloxy-acetamide]
80 to 100%: all assays above
